Source: article PMC4579270, “Identification and Characterization of an Irreversible Inhibitor of CDK2” (Chemistry & Biology, 2015)

What was measured:
Assay in all cases: Dundee protein kinase screen
Assay type in all cases: biochemical
CAMKKβ = CAMKKβ (Homo sapiens, UniProt Q96RR4); details: read-out: %Remaining activity at 1µM NU6300
Method: (§1) Prior to determining its cellular activity, we carried out a screen to assess its selectivity against a panel of 131 protein kinases under conditions that would not distinguish between a reversible or irreversible mode of action. […] These 13 kinases and 29 additional kinases, selected for their known sensitivity to other inhibitors within the purine series, were then tested in a modified screening format in which the assay was repeated following a 4-hr pre-incubation (Table S3B). […] However, conformational flexibility around the active site may promote such an interaction with a residue from another part of the structure ([Martin et al., 2012]).
(§2) Table S3, Related to Figure 4. NCL-0006300 protein kinase selectivity. (A) NU6300 was tested at a single concentration of 1µM against 131 protein kinases present in a Dundee protein kinase screen (Bain et al., 2007). Values given are % activity remaining and are the average of duplicate measurements: 0-25% (red), 26-50% (yellow), 51-80% (black) and above 81% (green). The kinase domain sequences (as defined by UniProt) of […]
(§3) have a lysine residue at a position close to CDK2 Lys88 or Lys89. However, in the structure of tyrosine-protein kinase BTK (PDB ID: 3GEN) the residue equivalent to CDK2 Asp86 is Cys481 and therefore there is the potential for a covalent adduct to be formed through this side chain. Ephrin type-B receptor 3 (UniProt entry P54753) also encodes a cysteine residue (Cys717) that by sequence alignment would be predicted to be close to the CDK2 lysine pair. (B) Selected kinases were re-tested in the Dundee kinase screen against NU6300 at a single concentration of 0.5 µM both in the standard assay format and following a 4 hour pre-incubation in the presence of NU6300. Kinases which have very low activity after the 4 hour incubation so that results might not be wholly reliable are boxed in salmon. Kinases where the activity after a 4 hour pre-incubation is < 50% that in the standard assay format are highlighted in red.

CK2 = CK2 (Homo sapiens, UniProt P68400); details: CK2, 1µM; read-out: %Remaining activity at 1µM NU6300
Sequence of CK2 (P68400 whole entry): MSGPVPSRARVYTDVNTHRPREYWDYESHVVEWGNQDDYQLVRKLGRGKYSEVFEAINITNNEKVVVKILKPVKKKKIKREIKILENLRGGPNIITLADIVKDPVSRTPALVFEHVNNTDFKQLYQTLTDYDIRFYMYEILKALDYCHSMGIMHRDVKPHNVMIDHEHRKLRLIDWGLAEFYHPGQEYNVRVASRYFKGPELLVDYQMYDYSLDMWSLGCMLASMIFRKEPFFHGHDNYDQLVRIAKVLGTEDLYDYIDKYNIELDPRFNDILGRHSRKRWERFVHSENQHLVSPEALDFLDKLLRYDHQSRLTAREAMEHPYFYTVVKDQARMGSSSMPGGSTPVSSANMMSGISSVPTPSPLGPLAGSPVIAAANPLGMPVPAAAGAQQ
Method: as §1, §2, §3

DAPK1 = DAPK1 (Homo sapiens, UniProt P53355); details: DAPK1, 1µM; read-out: %Remaining activity at 1µM NU6300
Method: as §1, §2, §3

DYRK1A = DYRK1A (Homo sapiens, UniProt Q13627); details: read-out: %Remaining activity at 1µM NU6300
Method: as §1, §2, §3

EPH-B1 = EPH-B1 (Homo sapiens, UniProt P54762); details: EPH-B1, 1µM; read-out: %Remaining activity at 1µM NU6300
Method: as §1, §2, §3

HIPK1 = HIPK1 (Homo sapiens, UniProt Q86Z02); details: HIPK1, 1µM; read-out: %Remaining activity at 1µM NU6300
Sequence of HIPK1 (Q86Z02 whole entry): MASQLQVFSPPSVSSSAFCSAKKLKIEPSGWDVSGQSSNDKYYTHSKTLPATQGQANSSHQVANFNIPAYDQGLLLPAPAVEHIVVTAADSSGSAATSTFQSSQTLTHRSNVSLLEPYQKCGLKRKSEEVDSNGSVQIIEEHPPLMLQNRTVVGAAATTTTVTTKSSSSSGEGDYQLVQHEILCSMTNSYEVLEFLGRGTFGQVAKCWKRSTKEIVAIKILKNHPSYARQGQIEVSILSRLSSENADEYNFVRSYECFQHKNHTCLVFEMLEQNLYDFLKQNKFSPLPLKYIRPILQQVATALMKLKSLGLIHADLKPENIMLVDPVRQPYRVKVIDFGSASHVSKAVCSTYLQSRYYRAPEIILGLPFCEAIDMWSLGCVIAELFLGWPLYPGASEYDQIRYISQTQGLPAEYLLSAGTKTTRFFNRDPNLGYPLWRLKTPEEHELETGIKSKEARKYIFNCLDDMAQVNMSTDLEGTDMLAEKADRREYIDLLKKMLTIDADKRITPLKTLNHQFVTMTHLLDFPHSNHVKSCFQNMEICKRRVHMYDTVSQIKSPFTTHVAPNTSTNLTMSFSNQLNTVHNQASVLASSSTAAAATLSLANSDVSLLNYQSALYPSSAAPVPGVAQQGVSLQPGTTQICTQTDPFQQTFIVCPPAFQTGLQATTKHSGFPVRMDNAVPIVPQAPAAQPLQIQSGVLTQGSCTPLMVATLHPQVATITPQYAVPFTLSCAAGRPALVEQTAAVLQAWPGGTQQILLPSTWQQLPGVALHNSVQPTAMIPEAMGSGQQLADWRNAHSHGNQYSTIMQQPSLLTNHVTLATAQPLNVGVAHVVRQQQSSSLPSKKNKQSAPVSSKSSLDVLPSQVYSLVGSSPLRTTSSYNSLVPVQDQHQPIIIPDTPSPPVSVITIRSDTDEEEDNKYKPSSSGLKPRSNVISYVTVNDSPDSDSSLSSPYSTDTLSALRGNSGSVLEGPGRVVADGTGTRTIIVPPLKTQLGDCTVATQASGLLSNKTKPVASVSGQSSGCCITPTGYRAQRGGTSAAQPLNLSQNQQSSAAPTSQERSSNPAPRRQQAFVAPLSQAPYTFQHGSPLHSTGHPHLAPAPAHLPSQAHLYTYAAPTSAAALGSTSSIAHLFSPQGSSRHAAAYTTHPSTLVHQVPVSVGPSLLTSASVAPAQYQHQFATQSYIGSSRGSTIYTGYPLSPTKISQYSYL
Method: as §1, §2, §3

JAK2 = JAK2 (Homo sapiens, UniProt O60674); details: JAK2, 1µM; read-out: %Remaining activity at 1µM NU6300
Sequence of JAK2 (O60674 whole entry): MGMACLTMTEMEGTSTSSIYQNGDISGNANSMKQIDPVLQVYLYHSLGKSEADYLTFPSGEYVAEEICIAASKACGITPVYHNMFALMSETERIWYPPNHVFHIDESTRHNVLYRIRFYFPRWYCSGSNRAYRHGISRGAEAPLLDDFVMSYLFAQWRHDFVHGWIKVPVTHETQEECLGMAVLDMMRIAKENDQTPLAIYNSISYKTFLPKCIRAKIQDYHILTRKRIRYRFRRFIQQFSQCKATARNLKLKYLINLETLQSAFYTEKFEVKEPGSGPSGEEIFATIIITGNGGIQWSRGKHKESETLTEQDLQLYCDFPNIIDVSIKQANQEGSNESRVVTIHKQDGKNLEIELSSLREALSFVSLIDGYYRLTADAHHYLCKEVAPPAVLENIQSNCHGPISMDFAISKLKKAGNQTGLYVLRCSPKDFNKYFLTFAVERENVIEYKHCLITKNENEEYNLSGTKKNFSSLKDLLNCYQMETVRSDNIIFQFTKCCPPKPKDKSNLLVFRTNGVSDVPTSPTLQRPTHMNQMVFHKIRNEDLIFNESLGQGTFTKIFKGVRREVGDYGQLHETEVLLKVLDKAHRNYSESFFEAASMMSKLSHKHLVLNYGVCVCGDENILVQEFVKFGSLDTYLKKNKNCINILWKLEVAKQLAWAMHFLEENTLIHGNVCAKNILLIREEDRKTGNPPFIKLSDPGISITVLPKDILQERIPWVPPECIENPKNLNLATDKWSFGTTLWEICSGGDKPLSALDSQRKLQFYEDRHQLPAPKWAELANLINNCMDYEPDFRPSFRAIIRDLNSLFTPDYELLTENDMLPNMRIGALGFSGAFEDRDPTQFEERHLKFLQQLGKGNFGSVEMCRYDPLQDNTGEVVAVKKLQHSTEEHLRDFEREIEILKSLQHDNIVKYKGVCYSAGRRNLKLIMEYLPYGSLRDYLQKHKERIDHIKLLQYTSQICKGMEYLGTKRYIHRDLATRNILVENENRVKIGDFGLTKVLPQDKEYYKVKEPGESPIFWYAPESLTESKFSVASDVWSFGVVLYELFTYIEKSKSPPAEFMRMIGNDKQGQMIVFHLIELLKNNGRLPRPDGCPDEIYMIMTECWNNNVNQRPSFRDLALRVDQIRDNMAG
Method: as §1, §2, §3

MKK2 = MKK2 (Homo sapiens, UniProt P36507); details: MKK2, 1µM; read-out: %Remaining activity at 1µM NU6300
Method: as §1, §2, §3

PAK4 = PAK4 (Homo sapiens, UniProt O96013); details: PAK4, 1µM; read-out: %Remaining activity at 1µM NU6300
Sequence of PAK4 (O96013 whole entry): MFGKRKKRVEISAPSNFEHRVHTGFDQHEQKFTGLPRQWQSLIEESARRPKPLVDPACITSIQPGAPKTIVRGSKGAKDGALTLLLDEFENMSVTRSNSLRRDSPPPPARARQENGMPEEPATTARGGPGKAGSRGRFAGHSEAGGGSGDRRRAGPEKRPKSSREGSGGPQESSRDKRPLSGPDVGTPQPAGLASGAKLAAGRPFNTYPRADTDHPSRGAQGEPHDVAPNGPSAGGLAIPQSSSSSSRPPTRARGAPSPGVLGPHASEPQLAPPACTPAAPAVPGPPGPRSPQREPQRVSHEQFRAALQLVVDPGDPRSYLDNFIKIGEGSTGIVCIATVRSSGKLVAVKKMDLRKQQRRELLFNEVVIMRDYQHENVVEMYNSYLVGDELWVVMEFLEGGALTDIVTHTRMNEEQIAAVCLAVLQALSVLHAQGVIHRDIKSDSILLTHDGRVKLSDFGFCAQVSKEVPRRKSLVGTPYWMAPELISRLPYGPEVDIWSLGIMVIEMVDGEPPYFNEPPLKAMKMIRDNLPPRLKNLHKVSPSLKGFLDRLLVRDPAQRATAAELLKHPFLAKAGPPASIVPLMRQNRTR
Method: as §1, §2, §3

PKA = PKA (Homo sapiens, UniProt P17612); details: read-out: %Remaining activity at 1µM NU6300
Method: as §1, §2, §3

RSK1 = RSK1 (Homo sapiens, UniProt Q15418); details: RSK1, 1µM; read-out: %Remaining activity at 1µM NU6300
Method: as §1, §2, §3

S6K1 = S6K1 (Homo sapiens, UniProt P23443); details: S6K1, 1µM; read-out: %Remaining activity at 1µM NU6300
Method: as §1, §2, §3

TrkA = TrkA (Homo sapiens, UniProt P04629); details: read-out: %Remaining activity at 1µM NU6300
Sequence of TrkA (P04629 33-796): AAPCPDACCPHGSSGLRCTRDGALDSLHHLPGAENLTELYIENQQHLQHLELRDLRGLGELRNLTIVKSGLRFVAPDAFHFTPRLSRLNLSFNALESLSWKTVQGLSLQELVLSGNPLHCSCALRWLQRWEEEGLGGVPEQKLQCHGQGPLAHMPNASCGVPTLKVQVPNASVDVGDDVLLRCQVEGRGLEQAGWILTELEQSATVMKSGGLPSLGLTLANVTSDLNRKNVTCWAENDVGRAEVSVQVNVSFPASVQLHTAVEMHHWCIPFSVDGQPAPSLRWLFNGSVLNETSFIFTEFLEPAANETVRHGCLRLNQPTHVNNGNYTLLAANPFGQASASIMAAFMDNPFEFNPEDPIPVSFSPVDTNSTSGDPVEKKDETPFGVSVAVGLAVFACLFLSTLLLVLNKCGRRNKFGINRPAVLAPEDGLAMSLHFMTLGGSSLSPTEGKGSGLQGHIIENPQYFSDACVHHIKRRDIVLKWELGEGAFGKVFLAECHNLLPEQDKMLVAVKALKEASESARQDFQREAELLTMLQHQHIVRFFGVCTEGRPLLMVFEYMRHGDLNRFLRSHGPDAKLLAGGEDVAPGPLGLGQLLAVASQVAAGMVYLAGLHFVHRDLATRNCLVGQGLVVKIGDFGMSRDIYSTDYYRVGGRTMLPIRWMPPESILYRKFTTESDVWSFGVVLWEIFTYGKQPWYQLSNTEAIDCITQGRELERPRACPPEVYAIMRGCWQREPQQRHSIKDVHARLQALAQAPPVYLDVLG
Method: as §1, §2, §3

p38α MAPK = p38α MAPK (Homo sapiens, UniProt Q16539); details: read-out: %Remaining activity at 1µM NU6300
Sequence of p38α MAPK (Q16539 whole entry): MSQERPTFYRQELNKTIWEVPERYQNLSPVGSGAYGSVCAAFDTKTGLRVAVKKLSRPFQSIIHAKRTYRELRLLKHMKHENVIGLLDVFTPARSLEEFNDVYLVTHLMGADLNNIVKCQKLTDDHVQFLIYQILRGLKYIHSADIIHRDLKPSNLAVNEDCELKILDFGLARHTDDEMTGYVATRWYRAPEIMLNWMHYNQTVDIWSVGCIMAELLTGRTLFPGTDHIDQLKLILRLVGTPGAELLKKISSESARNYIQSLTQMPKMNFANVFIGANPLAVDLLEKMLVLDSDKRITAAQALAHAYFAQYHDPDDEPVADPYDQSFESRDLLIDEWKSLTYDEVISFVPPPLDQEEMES
Method: as §1, §2, §3

Sequence of CAMKKβ (Q96RR4 whole entry): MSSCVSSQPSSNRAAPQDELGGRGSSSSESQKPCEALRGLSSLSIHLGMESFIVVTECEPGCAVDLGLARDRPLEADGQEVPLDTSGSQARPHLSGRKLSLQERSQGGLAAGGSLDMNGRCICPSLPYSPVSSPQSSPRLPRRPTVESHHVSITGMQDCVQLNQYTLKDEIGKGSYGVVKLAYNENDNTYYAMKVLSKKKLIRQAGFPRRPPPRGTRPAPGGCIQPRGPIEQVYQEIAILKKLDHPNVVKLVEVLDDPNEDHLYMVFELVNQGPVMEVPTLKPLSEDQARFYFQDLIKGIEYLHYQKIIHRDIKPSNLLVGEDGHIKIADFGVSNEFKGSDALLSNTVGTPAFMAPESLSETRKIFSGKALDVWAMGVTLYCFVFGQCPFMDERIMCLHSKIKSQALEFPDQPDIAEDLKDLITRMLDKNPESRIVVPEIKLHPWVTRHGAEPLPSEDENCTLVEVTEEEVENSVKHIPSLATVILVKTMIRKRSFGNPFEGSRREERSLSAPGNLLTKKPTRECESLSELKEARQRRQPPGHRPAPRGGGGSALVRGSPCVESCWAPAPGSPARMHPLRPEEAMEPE

## C=CS(=O)(=O)c1ccc(Nc2nc(OCC3CCCCC3)c3nc[nH]c3n2)cc1 [NU6300, 6-(cyclohexylmethoxy)-N-(4-(vinylsulfonyl)phenyl)-9H-purin-2-amine]
CAMKKβ
  remaining activity at 1 µM: 73%
CK2
  remaining activity at 1 µM: 91%
DAPK1
  remaining activity at 1 µM: 83%
DYRK1A
  remaining activity at 1 µM: 73%
EPH-B1
  remaining activity at 1 µM: 78%
HIPK1
  remaining activity at 1 µM: 93%
JAK2
  remaining activity at 1 µM: 5%
MKK2
  remaining activity at 1 µM: 84%
PAK4
  remaining activity at 1 µM: 35%
PKA
  remaining activity at 1 µM: 88%
RSK1
  remaining activity at 1 µM: 50%
S6K1
  remaining activity at 1 µM: 82%
TrkA
  remaining activity at 1 µM: 59%
p38α MAPK
  remaining activity at 1 µM: 81%
